Measurements taken from PubChem BioAssay AID488810 (Sanford-Burnham Center for Chemical Genomics, 2010).
Values joined by “and” are separate entries in the source; they are usually repeats but may differ in a detail not shown here. Equal values may be shown once. Active and inactive are the calls of the source.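 How the source made its calls: active means compounds with IC50 below 20 µM; inactive means the rest.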

Biological target: Type-1 angiotensin II receptor (Homo sapiens) (UniProt P30556)
Assay: AGTR1 antagonism selectivity check – cell-based, CHO-K1 PathHunter, luminescence, selectivity assay for APJ antagonist project, SAR follow-up (AID 488810);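 further: agonist challenge with angiotensin II at 50 nM final near its EC80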
Conditions: CHO-K1 AGTR1 PathHunter beta-arrestin, antagonist mode

Sequence of Type-1 angiotensin II receptor (Homo sapiens) (P30556 whole entry, looked up): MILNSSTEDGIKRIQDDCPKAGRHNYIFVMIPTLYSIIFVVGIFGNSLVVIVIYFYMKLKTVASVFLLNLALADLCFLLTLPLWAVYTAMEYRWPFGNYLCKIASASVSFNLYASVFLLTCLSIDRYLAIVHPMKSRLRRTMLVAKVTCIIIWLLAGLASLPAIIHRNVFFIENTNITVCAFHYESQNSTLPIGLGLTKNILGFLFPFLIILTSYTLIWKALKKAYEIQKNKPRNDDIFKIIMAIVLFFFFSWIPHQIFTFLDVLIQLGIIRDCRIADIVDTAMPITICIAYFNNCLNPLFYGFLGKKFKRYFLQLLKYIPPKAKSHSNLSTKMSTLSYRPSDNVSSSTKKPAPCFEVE

Row | Compound | IC50
1 | Oc1cccc(CSc2ncccn2)c1 | > 79 µM (inactive)
2 | Cc1cc(C)nc(NNS(=O)(=O)c2ccc(Cl)cc2)n1 | 12.4 µM
3 | CC(C)OC(=O)CN1C(=O)C(=O)c2ccccc21 | 4.99 µM and > 79 µM (inactive)
4 | C=CCOc1cccc(CSc2nccc(C)n2)c1 | > 79 µM (inactive)
5 | O=C(Oc1coc(CSc2ncccn2)cc1=O)c1ccccc1 | > 79 µM (inactive)
6 | CNC(=O)c1nnsc1S(=O)(=O)c1ccc(Cl)cc1 | 9.98 µM
7 | Cc1ccc(C)c(NCC(O)c2ccc(Cl)cc2)c1 (stereo not given) | > 79 µM (inactive)
8 | Cc1ccccc1C1CC2(CC(C)(C)NC(=S)N2)Oc2cc(O)c(Cl)cc21 (stereo not given) | > 79 µM (inactive)
9 | CC(C)(C)c1ccc(-n2nc(C#N)c(Cl)cc2=O)cc1 | 8.21 µM
10 | CC1(C)CC2(CC(c3ccccc3Cl)c3ccc(OC(=O)c4ccccc4)cc3O2)NC(=S)N1 (stereo not given) | > 79 µM (inactive)
11 | O=C(COC(=O)c1cccnc1)c1ccc(Cl)c(Cl)c1 | inactive
12 | O=C(Oc1coc(CSc2ncccn2)cc1=O)c1ccc(C(F)(F)F)cc1 | > 79 µM (inactive)
13 | Cc1cc(C)nc(SCc2cc(=O)c(OC(=O)c3cc(Cl)ccc3[N+](=O)[O-])co2)n1 | inactive
14 | Cc1ccnc(SCc2cc(=O)c(OC(=O)c3ccc(OC(F)(F)F)cc3)co2)n1 | > 79 µM (inactive)
15 | COc1ccccc1NCC(O)c1ccc(Cl)cc1 (stereo not given) | > 79 µM (inactive)
16 | O=C(COC(=O)c1cccnc1)c1ccc(Cl)cc1 | > 79 µM (inactive)
17 | O=C(Oc1coc(CSc2ncccn2)cc1=O)c1ccc(Cl)c([N+](=O)[O-])c1 | > 79 µM (inactive)
18 | Cc1ccnc(SCc2cc(=O)c(OC(=O)c3cccc(Cl)c3)co2)n1 | > 79 µM (inactive)
19 | Cc1cc(C)nc(SCc2cc(=O)c(OC(=O)c3cc([N+](=O)[O-])ccc3Cl)co2)n1 | inactive
20 | Cc1ccnc(SCc2cc(=O)c(OC(=O)c3ccc(C)c([N+](=O)[O-])c3)co2)n1 | > 79 µM (inactive)
21 | O=C1Nc2ccccc2C1=Nc1ccc(Br)cc1 | 6.68 µM
22 | CCN(CC)CC(=O)c1ccc(-c2ccccc2)cc1 | 10 µM
23 | Cc1ccnc(SCc2cc(=O)c(O)co2)n1 | > 79 µM (inactive)
24 | CC(C)Cc1nc2oc3c(Cl)ncnc3c2c2c1CCC2 | 15 µM
25 | COc1ccc(S(=O)(=O)NNc2nc(C)cc(C)n2)cc1[N+](=O)[O-] | inactive

Row | Compound | IC50
26 | O=c1c2cc(Br)ccc2[nH]c(=S)n1Cc1ccccn1 | 15.6 µM
27 | Cc1ccccc1NCC(=O)c1ccc(Cl)cc1 | 1.72 µM
28 | Cc1ccc(N=C2C(=O)Nc3ccc(Br)cc32)cc1 | 3.92 µM
29 | Cc1ccc(C(=O)Oc2coc(CSc3nccc(C)n3)cc2=O)cc1 | > 79 µM (inactive)
30 | Cc1cc(C)nc(SCc2ccc(OC(=O)c3ccccc3)c(Cl)c2)n1 | > 79 µM (inactive)
31 | CC1(C)CC2(CC(c3ccccc3Cl)c3ccc(O)cc3O2)NC(=S)N1 (stereo not given) | inactive
32 | Cc1ccnc(SCc2cc(=O)c(OC(=O)c3cccs3)co2)n1 | > 79 µM (inactive)
33 | COc1ccc(C2CC3(CC(C)(C)NC(=S)N3)Oc3cc(OC(C)=O)cc(C)c32)cc1 (stereo not given) | > 79 µM (inactive)
34 | CC(C)(C)c1ccc(C(=O)Oc2coc(CSc3ncccn3)cc2=O)cc1 | > 79 µM (inactive)
35 | Cc1cc(C)nc(SCc2cccc(O)c2)n1 | > 79 µM (inactive)
36 | Cc1ccnc(SCc2cc(=O)c(OCc3ccccc3)co2)n1 | > 79 µM (inactive)
37 | NC(=O)c1ccccc1NCC(=O)c1ccc(Cl)cc1 | 3.24 µM
38 | COC(=O)C1NN=C(C(=O)c2ccc(Cl)cc2)C1c1ccc(OC)cc1 (stereo not given) | 16.1 µM
39 | CC1(C)CC2(CC(c3ccc(F)cc3)c3ccc(O)cc3O2)NC(=S)N1 (stereo not given) | > 79 µM (inactive)
40 | COc1cccc(C(=O)Oc2coc(CSc3nccc(C)n3)cc2=O)c1 | > 79 µM (inactive)
41 | Cc1cc(C)nc(SCc2cc(=O)c(OC(=O)c3cccc([N+](=O)[O-])c3C)co2)n1 | > 79 µM (inactive)
42 | O=C(CNc1ccccc1C(=O)O)c1ccccc1 | 2.1 µM
43 | O=C(Oc1coc(CSc2ncccn2)cc1=O)c1ccc(S(=O)(=O)N2CCOCC2)cc1 | > 79 µM (inactive)
44 | CCCCOc1ccc(C(=O)Oc2coc(CSc3ncccn3)cc2=O)cc1 | > 79 µM (inactive)
45 | Cc1ccc(OCC(=O)OCC(=O)c2cccc([N+](=O)[O-])c2)cc1C | 15.8 µM
46 | Cc1ccnc(SCc2cc(=O)c(OC(=O)c3ccc(Cl)cc3)co2)n1 | > 79 µM (inactive)
47 | C=CCOc1cccc(CSc2nc(C)cc(C)n2)c1 | > 79 µM (inactive)
48 | COc1ccc(C(=O)Oc2coc(CSc3nccc(C)n3)cc2=O)cc1 | > 79 µM (inactive)
49 | Cn1c(=O)c(C(=S)NC(=O)C2CC2)c(N)n(Cc2ccccc2)c1=O | inactive
50 | Cc1ccnc(S(=O)(=O)Cc2cc(=O)c(OC(=O)c3ccc(Cl)c([N+](=O)[O-])c3)co2)n1 | > 79 µM (inactive)

Row | Compound | IC50
51 | Cc1ccc(NCC(O)c2ccccc2)cc1 (stereo not given) | > 79 µM (inactive)
52 | COc1ccc(C2CC3(CC(C)(C)NC(=S)N3)Oc3cc(O)cc(C)c32)cc1 (stereo not given) | > 79 µM (inactive)
53 | Cc1ccc(C(=O)Oc2coc(CSc3ncccn3)cc2=O)cc1 | > 79 µM (inactive)
54 | O=C(Oc1coc(CSc2ncccn2)cc1=O)c1cccc([N+](=O)[O-])c1 | > 79 µM (inactive)
55 | C=CCSC1=NC2(CC(c3ccccc3)c3c(C)cc(O)cc3O2)CC(C)(C)N1 (stereo not given) | > 79 µM (inactive)
56 | Cc1ccc(C(=O)Oc2coc(CSc3ncccn3)cc2=O)cc1C | > 79 µM (inactive)
57 | CC(=O)Nc1ccc(NC(=O)CCC(=O)OCC(=O)c2ccc(C)c([N+](=O)[O-])c2)cc1 | inactive
58 | Cc1ccnc(SCc2cc(=O)c(OC(=O)c3cc(Cl)ccc3[N+](=O)[O-])co2)n1 | inactive
59 | COc1cccc(/C=C/c2ccc3cccc(O)c3n2)c1OC | 14.1 µM
60 | O=C(CNS(=O)(=O)c1ccccc1)OCC(=O)c1cccc([N+](=O)[O-])c1 | inactive
61 | Oc1cccc2ccc(/C=C/c3ccccc3Cl)nc12 | 17 µM
62 | CC1(C)CC2(CC(c3ccccc3Cl)c3cc(Cl)c(OC(=O)C4CC4)cc3O2)NC(=S)N1 (stereo not given) | > 79 µM (inactive)
63 | CCOc1ccc(C(=O)Oc2coc(CSc3ncccn3)cc2=O)cc1 | > 79 µM (inactive)
64 | O=C(Oc1coc(CSc2ncccn2)cc1=O)c1ccc(S(=O)(=O)N2CCCCC2)cc1 | > 79 µM (inactive)
65 | O=C(Nc1nc2ccc(F)cc2s1)c1ccccn1 | 5.27 µM
66 | COc1ccc(C(=O)CNc2cccc(F)c2)cc1 | 18.8 µM
67 | S=C1NCCc2ccccc2C1c1ccccc1Cl (stereo not given) | 16.5 µM
68 | O=C(COC(=O)c1ccncc1)c1ccc(Cl)c(Cl)c1 | 19.8 µM
69 | Cc1cc(C)nc(SCc2cc(=O)c(OC(=O)c3ccc(S(=O)(=O)N(C)C)cc3)co2)n1 | > 79 µM (inactive)
70 | O=C(Oc1coc(CSc2ncccn2)cc1=O)c1ccc(F)cc1 | > 79 µM (inactive)
71 | Cc1ccc(C(=O)CNc2cc(C)ccc2C)cc1 | 3.44 µM
72 | O=C(Oc1coc(CSc2ncccn2)cc1=O)c1ccc(Br)cc1 | > 79 µM (inactive)
73 | Cc1ccnc(SCc2cc(=O)c(OC(=O)c3cc([N+](=O)[O-])ccc3Cl)co2)n1 | inactive
74 | Cc1ccc2nc(C)cc(C(=O)OCC(=O)c3ccc(Cl)c([N+](=O)[O-])c3)c2c1 | 7.74 µM
75 | O=c1cc(CSc2ccc(Cl)cc2)nc(-c2ccccn2)[nH]1 | 9.04 µM
